Test results: patent US20220064238A1, “Methods And Compositions For Modifying Transcription Factor Activity by Targeting The Human Mediator Complex Using Cell Penetrating Memetic Peptides And Methods of Treating Cancer Using The Same” (The Regents of the University of Colorado, a body corporate, priority 2020, published 2022)
Bridge positions count the residues as written; N and C are the ends. Square brackets hold non-standard residues; d marks the D form. Peptide text beside a SMILES is read from it. PEG6 = NCCOCCOCCOCCOCCOCCOCCC(=O)O; R8 = C=CCCCCCC[C@@](C)(N)C(=O)O; S5 = C=CCCC[C@](C)(N)C(=O)O

Columns and labels:
[1] = test system: p53-target genes in HCT116 cells; assay: RT-qPCR of p53 target genes in HCT116 cells; assay type: cell-based, human; settings: HCT116, 3-hour Nutlin treatment
Procedure: Experimental time frame for RNA-Seq experiments: In a series of experiments in SJSA cells, we initially tested whether the bivalent peptide could cause a phenotypic change. […] We next determined that a 6-hour Nutlin treatment time was the shortest that would still trigger significant SJSA cell death within 24-48 hours. However, we obtained similar results with 6-hour (or 12-hour) Nutlin treatment times (±bivalent peptide). We then tested the prospect of RNA-Seq experiments, in hopes that gene expression changes and shorter time frames would allow an assessment of bivalent peptide effects. Here, we used HCT116 cells, which show strong transcriptional response to Nutlin (Allen et al., 2014). For RNA-Seq experiments, we needed a time frame long enough to allow accumulation of p53 target gene mRNAs but short enough to enable maximum activity of the bivalent peptide (e.g. prior to its secretion, export, and/or degradation). Using RT-qPCR assays, we confirmed that a 3-hour Nutlin treatment was a minimum amount of time to reliably detect induction of p53 target genes. […] RNA-Seq data have been uploaded on GEO: GSE135870.

[2] = biological target: T1, p53-activated transcription (Gal4-p53AD, Mediator) (Homo sapiens, UniProt Q9NVC6); assay: In vitro transcription on naked DNA templates, p53-activated (+Gal4-p53AD); assay type: biochemical; settings: 500 nM peptide
T1 construct: made in house
Source text: To screen peptides for the ability to selectively block p53-dependent transcription, we required an assay that enabled p53-dependent activation but that could also support basal (i.e. activator-independent) transcription. The present inventors had previously established an in vitro transcription assay (using highly purified human factors (FIG. 1A). A key feature of this assay was that both activated and basal transcription could be reconstituted on naked DNA templates (i.e. DNA templates not assembled into chromatin). To adapt this assay for purposes of measuring basal vs. p53-activated transcription, we generated templates with Gal4 DNA binding sites upstream of the adenovirus major late promoter sequence (FIG. 5A, B). Upon titration of a Gal4 DNA Binding Domain (DBD)-p53 Activation Domain (AD; residues 1-70) fusion protein into this system, we observed pol II-dependent transcription that was dependent on p53AD and Mediator (FIG. 5C). Reactions containing Gal4-p53AD generally produced about two- to four-fold more transcripts compared to reactions with no activator (FIG. 5C). Because experiments without Gal4-p53AD produced a low level of “basal” transcription that could be quantitated, this system allowed assessment of both p53-activated and basal transcription. […]

Compound: CC[C@H](C)[C@H](NC(=O)[C@H](CC(=O)O)NC(=O)[C@H](CC(=O)O)NC(=O)[C@@H]1CCCN1C(=O)[C@H](CO)NC(=O)[C@H](CC(C)C)NC(=O)CCOCCOCCOCCOCCOCCOCCNC(=O)[C@H](CCCNC(=N)N)NC(=O)[C@H](CCCNC(=N)N)NC(=O)[C@]1(C)CCCC=CCCCCCC[C@@](C)(NC(=O)[C@H](Cc2ccccc2)NC(=O)[C@H](CCCNC(=N)N)NC(=O)[C@H](CCC(=O)O)NC(=O)[C@H](CCC(N)=O)NC(=O)[C@H](CO)NC(=O)[C@H](CCCNC(=N)N)NC(C)=O)C(=O)N[C@@H](CC(=O)O)C(=O)N[C@@H](CC(C)C)C(=O)N[C@@H](Cc2c[nH]c3ccccc23)C(=O)N[C@@H](CCCCN)C(=O)N[C@@H](CCCNC(=N)N)C(=O)N[C@@H](CC(C)C)C(=O)N1)C(=O)N[C@@H](CCC(=O)O)C(=O)N[C@@H](CCC(N)=O)C(=O)N[C@@H](Cc1c[nH]c2ccccc12)C(=O)N[C@@H](Cc1ccccc1)C(=O)N[C@H](C(=O)N[C@@H](CCC(=O)O)C(=O)N[C@@H](CC(=O)O)C(N)=O)[C@@H](C)O [bivalent peptide] (Ac-RSQERF[R8]DLWKRL[S5]RR[PEG6]LSPDDIEQWFTED-NH2; staple 7-14; N-terminus assumed)
- activation of p53-target genes by RT-qPCR [1]: blocking activation of p53-target genes
- inhibition of p53-activated transcription at 500 nM [2]: inhibited
